Test results published in patent publication US9896423B2, “Deuterium substituted 1-[2-(2,4-dimethyl-phenylsulfanyl)-phenyl]piperazine compound or derivatives thereof, and pharmaceutical composition and use thereof” (Jiangsu Jibeier Pharmaceutical Co. Ltd., priority 2014, dated 2018).
“And” between values parts separate entries of the source, which are not always exact repeats. Equal values may be shown once. Read-outs that look alike come from different tables or passages of the source.

Experiments:
[1] = Pharmacokinetic test in rats, gavage administration; assay type: in vivo, SD rats; details: for bioavailability: n = 6, read-out: F % (absolute bioavailability), Mean ± SD;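 as to AUC0-t (area under the plasma concentration-time curve from zero to the last sampling time): plasma area under the curve AUC0-1 in μg·h/L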
Procedure: The preferred compound of the present disclosure was assessed in rats for its pharmacokinetic profile.
SD rats, male and female, weighing 150 to 250 g
Mobile phase: 10 mM ammonium formate aqueous solution:methanol=15:85
The ionization source was electrospray ionization source. The detection mode was positive mode. Multiple reaction monitoring (MRM) was used as the scanning mode. The ion reaction for the quantitative analysis was the following: m/z was 305.2\150.0 for XX, and 256.1\167.1 for diphenhydramine (the internal standard).
XX or YY was orally administered with single dose of 20 mg/kg to six SD rats, one half of which were male and the other half was female. XX or YY was dissolved in 10% hydroxypropyl-β-cyclodextrin. […]
After the blood collection, the tubes were immediately gently turned upside down at least five times to ensure sufficient mixing, and placed on ice. Heparin was added for anticoagulation. The samples were centrifuged at 8000 rpm for 5 min to separate serum from erythrocyte. The serum was transferred with a pipettor to 2 mL polypropylene (PP) tubes, which were marked with the name of the compound and the time points, and stored in a refrigerator at −40° C. before LC-MS analysis. Samples with high concentrations were diluted with rat blank plasma.
2.5 μL of Meth-H2O and 5 μL of the internal standard solution (20 ng/mL, IS) were added to 50 μL of the plasma. Subsequently, 150 μL of methanol was added to the mixture to precipitate protein and the samples were then centrifuged at 13000 rpm for 5 min. The upper organic phase was taken out, filtrated with a 0.22 μM microporous membrane, and 2 μL of the sample was injected for the LC-MS analysis.

[2] = single oral dose of [14C]-labeled vortioxetine; cited from earlier work
[3] = system: Male ICR mice; test: Mice swimming test; assay type: in vivo
Excerpt: (§1) The following method is used for testing the antidepression effect of the compound of the present application. ICR mice or SD rats, gavaged for two successive weeks, were subjected to mice swimming test, mice tail suspension test and rats swimming test. See below for details of the tests and results.
Male ICR mice weighing 18 g to 20 g were used. They were fed on sterilized standard feed.
The compound administered in the test was 1-{2-[2,4-bis(trideuteriomethyl)phenylsulfanyl]phenyl}piperazine hydrobromic acid salt (XX for short). Vortioxetine (YY for short) was used as a control sample. Venlafaxine HCl (from Wyeth, USA) was used as a positive control.
Vortioxetine (15 mg) was combined with 10% hydroxypropyl-β-cyclodextrin to form a solution of 100 mL and was administered at daily dose of 3 mg/kg. 1-{2-[2,4-bis(trideuteriomethyl)phenylsulfanyl]phenyl}piperazine hydrobromic acid salt (15 mg and 7.5 mg) was combined with 10% hydroxypropyl-β-cyclodextrin to form two solutions of 100 mL and was administered at daily doses of 3 mg/kg and 1.5 mg/kg, respectively. Venlafaxine HCl (75 mg) was combined with 0.5% CMC-Na to form a solution of 100 mL and was administered at daily dose of […].
A recording and analysis system for small-animal behavior (Noldus) was used.
All the eighty mice were subjected to prescreening one day before the administration. The mice, fasted for 4 hours were put in a round glass tank (ø 14 cm×h 20 cm, with water of 10 cm depth and at a temperature of 25° C.) to swim. […] The whole swimming course was recorded by the video and the data were collected and analyzed automatically by Noldus software.
The forty qualified mice were divided into 4 groups, each of which had 10 mice, according to the Excel random grouping.
The medicaments were administered to each group by gavage with the amount of 0.2 ml per 10 g of body weight, once a day for 14 successive days. One hour later after the last oral administration, the mice were allowed to swim for 6 min. The video recorded the whole swimming course, and the Noldus software automatically collected and analyzed the data.
The data was given as “average±standard deviation” (x±s). One-way analysis of variance (one-way ANOVA) was used for data difference statistics. Differences among the groups were determined by P<0.05.

[4] = system: Male ICR mice; test: Mice tail suspension test; assay type: in vivo
Excerpt: as §1
The animals, medicaments, calculation of dosages to the mice, preparation of drug solution and apparatus are the same as those in the mice swimming test.
The medicaments were correspondingly administered by gavage, once a day, to the animals in the groups for 14 successive days, with the amount of 0.2 ml per 10 g of body weight. The mice were subjected to tail suspension one hour later after the last oral administration. The suspension continued for 6 min.
The data was given as “average±standard deviation” (x±s). One-way analysis of variance (ANOVA) was used for data difference statistics. Differences among the groups were determined by P<0.05.

[5] = rats, oral 20 mg/kg, individual rats 1-6, 20 mg/kg
[6] = 3 mg/kg gavage, two successive weeks

Question: Which concentration at 2 h ([1]; both sexes, Sprague-Dawley, rat, plasma, oral, 20 mg/kg, 20 mg/kg oral, 2 h, mean of 6 rats, read-out: Concentrations in Plasma of Rats after Oral Administration, Mean ± SD) does the source give for `Cc1ccc(Sc2ccccc2N2CCNCC2)c(C)c1` [YY, 1-[2-(2,4-dimethyl-phenylsulfanyl)-phenyl]piperazine] here?
Answer: Its concentration at 2 h is 92.1 ± 45.7 ng/mL.

Question: And the concentration at 3 h ([1]; both sexes, Sprague-Dawley, rat, plasma, oral, 20 mg/kg, 20 mg/kg oral, 3 h, mean of 6 rats, read-out: Concentrations in Plasma of Rats after Oral Administration, Mean ± SD)?
Answer: Its concentration at 3 h is 59.9 ± 30.7 ng/mL.

Question: And the concentration at 4 h ([1]; both sexes, Sprague-Dawley, rat, plasma, oral, 20 mg/kg, 20 mg/kg oral, 4 h, mean of 6 rats, read-out: Concentrations in Plasma of Rats after Oral Administration, Mean ± SD)?
Answer: The concentration at 4 h was 53.4 ± 21.6 ng/mL.

Question: And the concentration at 6 h ([1]; both sexes, Sprague-Dawley, rat, plasma, oral, 20 mg/kg, 20 mg/kg oral, 6 h, mean of 6 rats, read-out: Concentrations in Plasma of Rats after Oral Administration, Mean ± SD)?
Answer: Its concentration at 6 h is 36.4 ± 11.7 ng/mL.

Question: And the concentration at 8 h ([1]; both sexes, Sprague-Dawley, rat, plasma, oral, 20 mg/kg, 20 mg/kg oral, 8 h, mean of 6 rats, read-out: Concentrations in Plasma of Rats after Oral Administration, Mean ± SD)?
Answer: The concentration at 8 h was 18.1 ± 5.3 ng/mL.

Question: And the concentration at 10 h ([1]; both sexes, Sprague-Dawley, rat, plasma, oral, 20 mg/kg, 20 mg/kg oral, 10 h, mean of 6 rats, read-out: Concentrations in Plasma of Rats after Oral Administration, Mean ± SD)?
Answer: Its concentration at 10 h is 9.79 ± 2.62 ng/mL.

Question: What about the concentration at 12 h ([1]; both sexes, Sprague-Dawley, rat, plasma, oral, 20 mg/kg, 20 mg/kg oral, 12 h, mean of 6 rats, read-out: Concentrations in Plasma of Rats after Oral Administration, Mean ± SD) of the same compound?
Answer: The concentration at 12 h was 5.12 ± 1.67 ng/mL.

Question: What about the concentration at 14 h ([1]; both sexes, Sprague-Dawley, rat, plasma, oral, 20 mg/kg, 20 mg/kg oral, 14 h, mean of 6 rats, read-out: Concentrations in Plasma of Rats after Oral Administration, Mean ± SD) of the same compound?
Answer: Its concentration at 14 h is 4.08 ± 1.66 ng/mL.

Question: And the concentration at 24 h ([1]; both sexes, Sprague-Dawley, rat, plasma, oral, 20 mg/kg, 20 mg/kg oral, 24 h, mean of 6 rats, read-out: Concentrations in Plasma of Rats after Oral Administration, Mean ± SD)?
Answer: Its concentration at 24 h is 0.64 ± 0.32 ng/mL.

Question: And the bioavailability ([1]; both sexes, Sprague-Dawley, rat, plasma, oral, 20 mg/kg, rats, oral 20 mg/kg vs iv 2 mg/kg)?
Answer: The bioavailability was 7.51 ± 2.77%.

Question: And the AUC(0-t) ([1]; both sexes, Sprague-Dawley, rat, plasma, po, 20 mg/kg, gavage administration of 20 mg/kg, rats, read-out: AUC0-t in the rats' plasma)?
Answer: Its AUC(0-t) is 489 ± 180 ng·h/mL.

Question: What about the bioavailability ([1]; both sexes, Sprague-Dawley, rat, plasma, po, 20 mg/kg, rats, oral 20 mg/kg vs iv 2 mg/kg) of the same compound?
Answer: Its bioavailability is 7.51 ± 2.77%.

Question: What about the F % ([1]; rats, oral 20 mg/kg vs iv 2 mg/kg, individual rats 1-6) of the same compound?
Answer: The F % was 12.83% and 6.36% and 7.40% and 7.17% and 6.55% and 4.75%.

Question: And the “AUC0-t (area under the plasma concentration-time curve from zero to the last sampling time)” value [1, 5]?
Answer: The value was 836.1 ng·h/mL and 415.8 ng·h/mL and 480.4 ng·h/mL and 467.8 ng·h/mL and 427.0 ng·h/mL and 309.2 ng·h/mL.

Question: What about the “AUC0-∞” value [1, 5] of the same compound?
Answer: Its value is 839.3 ng·h/mL and 416.2 ng·h/mL and 484 ng·h/mL and 469.3 ng·h/mL and 428.7 ng·h/mL and 310.6 ng·h/mL.

Question: What about the Cmax [1, 5] of the same compound?
Answer: The Cmax was 182.0 ng/mL and 85.2 ng/mL and 91.8 ng/mL and 89.2 ng/mL and 93.2 ng/mL and 56.4 ng/mL.

Question: And the “MRT0-∞” value [1, 5]?
Answer: The value was 4.65 h and 4.73 h and 4.67 h and 4.60 h and 5.35 h.

Question: What about the t1/2 [1, 5] of the same compound?
Answer: Its t1/2 is 2.20 h and 3.50 h and 2.83 h and 3.06 h and 3.10 h.

Question: And the “radioactive metabolites recovered in the feces” value [2]?
Answer: Its value is roughly 26%.

Question: And the “radioactive metabolites recovered in the urine” value [2]?
Answer: The value was “approximately 59%”.

Question: And the “effect on length of time that the mice stopped swimming vs blank control” value [3, 6]?
Answer: Its value is “did not shorten”.

Question: What about the “Duration without Movement within the Last 4 min of the Whole 6 min” value ([3]; mice, gavage once a day for 14 days, 3 mg/kg, n = 10, x ± s) of the same compound?
Answer: The value was 199.6 ± 26.1 s.

Question: What about the “effect on length of time that the tail-suspended mice stopped moving vs blank control” value [4, 6] of the same compound?
Answer: Its value is “did not shorten”.

Question: What about the “Duration without Move within 6 min” value ([4]; mice tail suspension, gavage 14 days, 3 mg/kg, n = 10, x ± s) of the same compound?
Answer: Its value is 284.9 ± 51.2 s.
